Values of other authors, collected in patent US20060121016A1, “Methods and compositions for treatment of free radical injury” (priority 2004, published 2006).

Details: administered both before and after the operation

SMILES: Oc1ncnc2[nH]ncc12 [allopurinol]
- Reduction of incidence of complication following surgery: 70%
